Key:
metastatic MBr cells = test: TRAIL killing of tumor cells versus normal cells; assay type: cell-based
NSC-TR-TK-GF1 cells [1] = test: Ganciclovir eradication of NSC-TR-TK-GF1 in mouse brains, Fluc bioluminescence imaging; assay type: in vivo, mice; settings: for eradication of NSCs in non-tumor bearing brain: ganciclovir 75 mg/kg i.p. daily
Description: Two hundred thousand NSC-TR-TK-GF1 cells were either intracranially or intracarotidly injected in nude mice. Seven days after intracranial injection, or 3 days after intracarotid injection, daily PBS or ganciclovir (75 mg/kg body weight) were administrated via intraperitoneal (i.p.) injection for 2 weeks. NSC fate was assessed by bioluminescence imaging at various time points. To assess the eradication of therapeutic NSC post-tumor treatment, MBr-RmC cells (50 000 cells/mouse) were intracranially injected in nude mice and tumor-bearing mice were injected intratumorally with NSC-TR-TK-GF1 (50 000 cells/mouse) in the mouse brain. Daily PBS or ganciclovir were administrated via intraperitoneal injection after 4 days of NSC injection and the fate of NSCs was assessed by bioluminescence imaging at different time points.

hNSC-TR-TK = test: Ganciclovir eradication of modified human NSCs in vitro; assay type: cell-based; set-up: dose or concentration left out as unconfirmed
Description: (§1) (FIG. 6A) Plot showing the viability of MBr-FmC cells co-cultured with engineered human NSCs expressing TRAIL (TR), both TRAIL and HSV-TK (TR-TK) or GFP as measured by Fluc activity in vitro. (FIG. 6B) Plot showing the viability of modified human NSCs treated with ganciclovir (10 mg/ml). (FIG. 6C) Plot showing the viability of MBr-FmC cells co-cultured with engineered human MSC expressing TRAIL (TR), both TRAIL and HSV-TK (TR-TK) or GFP. (FIG. 6D) Plot showing the viability of modified human MSCs treated with ganciclovir (10 mg/ml).
(§2) To make the therapeutic strategy more clinically relevant, human NSCs and human MSCs were used and the efficacy of the TRAIL/thymidine kinase system on metastatic tumor cells was tested. Human NSCs and MSCs were engineered to express secreted TRAIL (hNSC-TR/hMSC-TR) or co-express secreted TRAIL and HSV-TK (hNSC-TR-TK/hMSC-TR-TK), and established co-cultures of MBr-FmC with different proportions of modified human NSCs and MSCs.

hMSC-TR-TK = test: Ganciclovir eradication of modified human MSCs in vitro; assay type: cell-based; set-up: dose or concentration left out as unconfirmed
Description: as §1, §2

NSC-TR-TK-GF1 cells [2] = test: Ganciclovir elimination of NSC-TR-TK-GF1 in vitro; assay type: cell-based, mouse; settings: 10 mg/ml GCV
Description: (FIG. 11A) Representative phase and fluorescent images of NSC-TR-TK-GF1 in the presence or absence of 10 mg/ml GCV. Plot showing the Fluc activity of transduced cells in vitro. (FIG. 11B) Viability of MBr-FmC cells co-cultured with modified NSC at 1:1 ratio as measured by Fluc activity in vitro. The effects of NSC engineered with TK or TK-TR are shown. (FIG. 11C) Upper, outline of the experiment. Representative fluorescent images of metastatic MBr-RmC tumors in the mouse brain with or without NSC-TR-TK-GF1 administration to show post-tumor treatment (scale bar=100 μm).
To translate NSC-S-TRAIL therapy for brain metastasis into clinics, it is critical to follow the long-term fate of NSCs post-tumor treatment and ultimately, selectively eradicate therapeutic NSCs to avoid continuous access of therapeutic agent to normal brain tissue and to circumvent any malignant transformation of NSCs. To address this, NSC-S-TRAIL expressing cells were engineered to further express herpes simplex virus thymidine kinase (HSV-TK) and GFP-Fluc (GF1) (NSC-TR-TK-GF1) and tested for efficacy of thymidine kinase suicide therapy in vitro. […] Further, the efficacy of ganciclovir to eradicate NSCs in non-tumor bearing brain was tested. […] Next, the eradication of therapeutic NSCs post-tumor treatment in vivo was tested. NSC-TR-TK-GF1 expressing cells were intracranially injected into MBr-RmC tumor-bearing brains.

Molecule | killing of tumor cells versus normal cells (metastatic MBr cells) | eradication of therapeutic NSCs post-tumor treatment (NSC-TR-TK-GF1 cells [1]; MBr-RmC tumor-bearing brains, vs PBS) | eradication of NSCs in non-tumor bearing brain (NSC-TR-TK-GF1 cells [1]; NSCs implanted via intracranial route) | eradication of NSCs in non-tumor bearing brain (NSC-TR-TK-GF1 cells [1]; NSCs via intracarotid route) | eradication of hNSC-TR-TK in vitro (hNSC-TR-TK) | eradication of hMSC-TR-TK in vitro (hMSC-TR-TK) | elimination of modified NSC in vitro (Fluc, GFP) (NSC-TR-TK-GF1 cells [2])
TRAIL | specifically killed the tumor cells instead of the normal cells | – | – | – | – | – | –
Nc1nc(O)c2ncn(COC(CO)CO)c2n1 [ganciclovir] | – | eradication of therapeutic NSC-TR-TK-GF1 | substantially eradicated | substantially eradicated | successfully eradicated | successfully eradicated | eliminated

From patent US20180112006A1, “AGENTS, SYSTEMS AND METHODS FOR TREATING CANCER” (THE GENERAL HOSPITAL CORPORATION, priority 2015, published 2018)
